In patent US12492236B2, “Fusion proteins for the treatment of cardiometabolic diseases” (Shattuck Labs, Inc., priority 2022, dated 2025):

How the values were obtained:
[1] = test system: rat insulinoma INS-1 cells; assay: in vitro glucose-stimulated insulin secretion (GSIS) in INS-1 cells; type: cell-based; conditions: 1 hour glucose, then 2 hour incubation, ELISA, FIG. 4B
From the text: X is a known inducer of GSIS.

[2] = test system: HFD-fed mice (Male C57BL/6); assay: glucose tolerance test (GTT) model in HFD-fed mice; type: in vivo
Description: Cages were changed once, then changed once a week.
The mice administered the above treatment by i.v. injections. The mice were then fasted for 18 hours and administered a dose of 2 g/kg glucose by i.v. injections. Blood samples were drawn by tail clip bleeding at 15, 30 and 60 minutes post dosing and cardiac bleeding was used at 2 hours after glucose injection as end-point.

[3] = test system: HFD-fed mice (Male C57BL/6); assay: longer-term obesity model in HFD-fed mice
From the text: Briefly, mice (Male C57BL/6) were of approximately 13 weeks of age were housed 4 mice per cage. Following 2 weeks of acclimation, mice were introduced to 60% kcal HFD (Research Diets D12492). Cages were changed once, then changed once a week. Weekly body weights and non-fasted blood glucose were collected. […] The longer-term obesity model assesses a number of end points associated with obesity related type 2 diabetes (FIG. 6A).
Mice (Male C57BL/6) were of approximately 13 weeks of age were housed 4 mice per cage. Following 2 weeks of acclimatation, mice were introduced to 60% kcal HFD (Research Diets D12492). Cages were changed once, then changed once a week. Weekly body weights and non-fasted blood glucose were collected.
Mice were injected by tail vein with vehicle or the drugs on Day 0, Day 4, Day 7, Day 10, Day 14, and Day 18. Body weights were measured every 2 days. Change in body weight was calculated and plotted.
Cumulative food intake was measured between day 0 and 3, between day 4 and 7, between day 7 and day 11, and between day 11 and day 14, and represented as average daily food intake. For food consumption, remaining food was weighed on days 3, 8, and 15, and subtracted from the starting weight. This value was then normalized to the number of mice in the cage, and the number of days the mice had access to the food prior to weighing.
Blood glucose levels were measured on Days 0, 1, 10 and 15 and plotted.
On day 19 during terminal necropsy, liver and subcutaneous white adipose tissue were recovered weighed from treated animals.
To further analyze the changes in liver, histopathological analysis was conducted. Briefly, the liver tissue was stained with hematoxylin and eosin (H&E) and evaluated using standard techniques.

GLP-1-Fc-GIP(Ag): GLP-1 fused to GIP agonist peptide (amino acids 1-42) via a hinge-CH2-CH3 Fc domain derived from IgG1; SEQ ID NO: 93
insulin in culture supernatant (GSIS) [1]: stimulated insulin production to a similar, if not greater magnitude than dulaglutide or tirzepatide | serum insulin time course following glucose administration ([2]; FIG. 7C): rapid induction of insulin | serum glucose time course following glucose administration ([2]; i.v. treatment, 18 hours fast, 2 g/kg glucose, versus PBS control (200 to about 800 mg/dl), FIG. 7A): much smaller increase in serum glucose | glucose tolerance ([2]; summary of GTT model): improved glucose tolerance | blood glucose levels ([3]; Days 0, 1, 10 and 15, compared to the untreated mice, FIG. 8E): decrease in blood glucose | weights of individual mice ([3]; FIG. 8B): induced weight loss | liver histology: hepatocellular ballooning and steatosis ([3]; H&E, FIG. 8J): a decrease in hepatocellular ballooning and steatosis | plasma insulin levels on Day 1 ([3]; between 15 and 120 minutes after treatment, one way ANOVA p<0.05, FIG. 8C left panel): rapid decrease in insulin levels | average daily food intake ([3]; compared to the untreated mice, FIG. 8D): decrease in food intake | liver weight: livers of PBS control mice versus treated mice ([3]; day 19 necropsy, FIG. 8G): much heavier compared to the mice receiving treatments | subcutaneous white adipose tissue (sWAT) weight ([3]; day 19 necropsy, versus PBS control, FIG. 8H): decreased | tolerability ([3]; obesity model): well tolerated and no overt toxicities were noted | plasma insulin levels on Day 15 ([3]; one way ANOVA p<0.0001, FIG. 8C right panel): significant decrease in the levels of insulin | decrease in liver collagen staining relative to tirzepatide or dulaglutide ([3]; picrosirius red, FIG. 8I): greater decrease in collagen staining | liver collagen staining (fibrosis) ([3]; picrosirius red, FIG. 8I): a decrease in collagen staining | change in body weight ([3]; tail vein dosing Day 0, 4, 7, 10, 14, 18, FIG. 8A): progressive weight loss
